Experimental data published in paper PMC11232401, “Characterization of antimalarial activity of artemisinin-based hybrid drugs” (Antimicrobial Agents and Chemotherapy, 2024).

Key:
P. falciparum = test: Parasite growth inhibition (cell potency); type: cell-based; details: Plasmodium falciparum; strain and exposure not stated at the place
[1] = Quantification of hybrid 1 in uRBC-derived supernatants by HPLC and fluorescence; type: in vitro ADME, human
Protocol: Each well of 96-well plates was filled with 125 µL drug (1000 nM) and 125 µL uninfected red blood cells (uRBC), which were mixed to obtain a final drug concentration of 500 nM and 2.5% or 1.0% hematocrit. The plates were incubated at 37°C in the standard gas mixture. After each time point (10 min, 6 h, and 24 h), supernatants were carefully harvested and stored at −80°C until use. Untreated uRBC incubated at the same times were used as negative controls, and DHA and AQ were employed as standard drugs. Next, supernatants were diluted in a complete medium in six different dilutions and were aliquoted in new plates. The antimalarial activity of these supernatants and freshly dissolved drugs was determined in an asynchronous parasite culture of P. falciparum (3D7, D10, and W2 strains) for 72 h using the same method described above, and parasite viability was assessed by the pLDH ([38]) and SYBR Green I ([41]) methods. […] Decay in drug concentration was estimated by using the normalized slope values calculated from linear regression fits using the slope values of a standard curve as reference. […]
To test the association between the antimalarial activity of hybrid 1 supernatants and chemical stability, the concentration of hybrid 1 in these supernatants was quantified by high-performance liquid chromatography (HPLC) and fluorescence in a microplate reader. The concentration of hybrid 1 remained constant under incubation with PBS over the analyzed time (Fig. 3E; Fig. S1). […] Moreover, we defined the slopes calculated from linear regression fits to accurately reflect the effective decay in drug concentration because peroxides could covalently bind to proteins present in the supernatant. […]
Figure S1: Quantification of hybrid LH70 (1) by fluorescence and HPLC in the uRBC-derived supernatants. […] The drug was quantified in the supernatant of the cell culture after the second and third steps of medium replacement and washing out. […] RFU = relative fluorescence units.

| Compound | IC50 (P. falciparum) | concentration of hybrid 1 in supernatant at 24 h ([1]; uRBC hematocrit 2.5%, start 500 nM, HPLC) | Maximum rate of reduction of drug concentration between 10 min and 24 h, HPLC ([1]; uRBC supernatants, slopes of linear regression fits, HPLC) | Maximum rate of reduction of drug concentration between 10 min and 24 h, fluorescence microplate reader ([1]; uRBC supernatants, slopes of linear regression fits, fluorescence) |
| --- | --- | --- | --- | --- |
| C[C@H]1[C@@H](O)O[C@@H]2O[C@@]3(C)CC[C@H]4[C@H](C)CC[C@@H]1[C@@]24OO3 [DHA, dihydroartemisinin, reference compound] | 5 nM |  |  |  |
| COCCOCCOCCOCCn1c(-c2ccc(-n3cc(-c4ccc(OC5OC6OC7(C)CCC8C(C)CCC(C5C)C68OO7)cc4)nn3)cc2)nc2ccccc21 (stereo not shown) [Hybrid 1] |  | 256 nM | 56.4% | 65.4% |
